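1) Cells in 96-well plates. 2) Compound, 48 h, 5 concentrations. 3) Linear interpolation between surrounding doses. 4) Unreached endpoint = highest concentration. Abbreviation: GI50, concentration required for 50% inhibition of growth.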 Calls of active or inactive are those of the source. No stated cut-off is given here; in the data, active = GI50 up to about 1.1 µM and inactive = higher.
Columns and labels:
Assay in all cases: growth of human tumour cells (NCI), 48 h
ACHN = system: ACHN
BT-549 = system: BT-549
CAKI-1 = system: CAKI-1
CCRF-CEM = system: CCRF-CEM
DU-145 = system: DU-145
HL-60 = system: HL-60
HOP-62 = system: HOP-62
HOP-92 = system: HOP-92
K562 = system: K562
LOX IMVI = system: LOX IMVI
M14 = system: M14
MDA-N = system: MDA-N
Malme-3M = system: Malme-3M
NCI-H23 = system: NCI-H23
OVCAR-5 = system: OVCAR-5
RPMI-8226 = system: RPMI-8226
SK-OV-3 = system: SK-OV-3
TK-10 = system: TK-10
KM12 = system: KM12
SR = system: SR

Row | Structure (SMILES) | GI50 (ACHN) | GI50 (BT-549) | GI50 (CAKI-1) | GI50 (CCRF-CEM) | GI50 (DU-145) | GI50 (HL-60) | GI50 (HOP-62) | GI50 (HOP-92) | GI50 (K562) | GI50 (LOX IMVI) | GI50 (M14) | GI50 (MDA-N) | GI50 (Malme-3M) | GI50 (NCI-H23) | GI50 (OVCAR-5) | GI50 (RPMI-8226) | GI50 (SK-OV-3) | GI50 (TK-10) | GI50 (KM12) | GI50 (SR)
1 | COC(=O)[C@]1(C)CCC[C@@]2(C)[C@@H]3C[C@@H]4[C@H]5C[C@@]3(CC[C@@H]21)C[C@@]45C | 15.8 µM (inactive) | 16.5 µM (inactive) | 16.4 µM (inactive) | 18 µM (inactive) | 25.8 µM (inactive) | 2.08 µM (inactive) | 17.8 µM (inactive) | 15.2 µM (inactive) | 0.643 µM (active) | 19.7 µM (inactive) | 20.7 µM (inactive) | 17.9 µM (inactive) | 22.2 µM (inactive) | 14.6 µM (inactive) | 18 µM (inactive) | 10.3 µM (inactive) | 14.7 µM (inactive) | 15.1 µM (inactive) | – | –
2 | Oc1ccc(-c2nc3ccc(F)cc3s2)cc1 | 19.1 µM (inactive) | 18.1 µM (inactive) | 19.7 µM (inactive) | – | 15.2 µM (inactive) | 22.4 µM (inactive) | – | – | 29.4 µM (inactive) | 20.4 µM (inactive) | 20.4 µM (inactive) | 23.5 µM (inactive) | 18.5 µM (inactive) | 19.7 µM (inactive) | 21.7 µM (inactive) | 35.7 µM (inactive) | 18.2 µM (inactive) | 16 µM (inactive) | 15.7 µM (inactive) | 26.1 µM (inactive)
3 | CCN(CC)c1ccc2c(c1)OC(=O)C(c1nnc(-c3ccc([N+](=O)[O-])cc3)o1)C2 (configuration not stated) | > 100 µM (inactive) | > 100 µM (inactive) | > 100 µM (inactive) | 34.2 µM (inactive) | > 100 µM (inactive) | 84.5 µM (inactive) | > 100 µM (inactive) | > 100 µM (inactive) | 38 µM (inactive) | > 100 µM (inactive) | > 100 µM (inactive) | > 100 µM (inactive) | > 100 µM (inactive) | > 100 µM (inactive) | > 100 µM (inactive) | > 100 µM (inactive) | > 100 µM (inactive) | > 100 µM (inactive) | > 100 µM (inactive) | –
4 | On1c(-c2ccccc2)nc2ccccc2c1=S | 5.21 µM (inactive) | > 100 µM (inactive) | 5.48 µM (inactive) | 1.55 µM (inactive) | 7.64 µM (inactive) | 2.4 µM (inactive) | 7.35 µM (inactive) | > 100 µM (inactive) | 3.91 µM (inactive) | 0.632 µM (active) | 2.91 µM (inactive) | 18.9 µM (inactive) | 5 µM (inactive) | 3.43 µM (inactive) | > 100 µM (inactive) | 3.27 µM (inactive) | 6.92 µM (inactive) | > 100 µM (inactive) | 3.18 µM (inactive) | –
5 | COCCN1C(=O)C2c3[nH]c4ccccc4c3C3CCC(C(C)(C)C)CC3C2C1=O (configuration not stated) | > 10 µM (inactive) | 18.8 µM (inactive) | 23.1 µM (inactive) | 22.6 µM (inactive) | 19.1 µM (inactive) | 16 µM (inactive) | 18.6 µM (inactive) | – | 18.9 µM (inactive) | – | 18.5 µM (inactive) | 14.5 µM (inactive) | – | 22.6 µM (inactive) | – | 15.2 µM (inactive) | 20.2 µM (inactive) | > 10 µM (inactive) | 19.2 µM (inactive) | 11.7 µM (inactive)
6 | CC(C)NC(=O)OCC[S+]([O-])c1c(Cl)c(Cl)nn1C (configuration not stated) | 46.1 µM (inactive) | > 10 µM (inactive) | 37.6 µM (inactive) | 27.5 µM (inactive) | > 100 µM (inactive) | 47.5 µM (inactive) | 69.3 µM (inactive) | – | 34 µM (inactive) | 0.724 µM (active) | 21.1 µM (inactive) | 38.7 µM (inactive) | – | 42.9 µM (inactive) | 49 µM (inactive) | 64.9 µM (inactive) | > 100 µM (inactive) | > 100 µM (inactive) | > 100 µM (inactive) | 48.9 µM (inactive)

Source: ChEMBL document CHEMBL1201862, “PubChem BioAssay data set” (2004)
